# From BindingDB's records for doi:10.1021/jm00172a035 (Wyeth-Ayerst Research, 1990)
# Counter-ions that a name gives are not always drawn.
# Target: Sodium-dependent serotonin transporter (Rattus norvegicus) (UniProt P31652)
# Test: Inhibition of binding of [3H]imipramine to imipramine receptor in rat brain
# Sodium-dependent serotonin transporter (Rattus norvegicus), sequence (P31652 whole entry, looked up): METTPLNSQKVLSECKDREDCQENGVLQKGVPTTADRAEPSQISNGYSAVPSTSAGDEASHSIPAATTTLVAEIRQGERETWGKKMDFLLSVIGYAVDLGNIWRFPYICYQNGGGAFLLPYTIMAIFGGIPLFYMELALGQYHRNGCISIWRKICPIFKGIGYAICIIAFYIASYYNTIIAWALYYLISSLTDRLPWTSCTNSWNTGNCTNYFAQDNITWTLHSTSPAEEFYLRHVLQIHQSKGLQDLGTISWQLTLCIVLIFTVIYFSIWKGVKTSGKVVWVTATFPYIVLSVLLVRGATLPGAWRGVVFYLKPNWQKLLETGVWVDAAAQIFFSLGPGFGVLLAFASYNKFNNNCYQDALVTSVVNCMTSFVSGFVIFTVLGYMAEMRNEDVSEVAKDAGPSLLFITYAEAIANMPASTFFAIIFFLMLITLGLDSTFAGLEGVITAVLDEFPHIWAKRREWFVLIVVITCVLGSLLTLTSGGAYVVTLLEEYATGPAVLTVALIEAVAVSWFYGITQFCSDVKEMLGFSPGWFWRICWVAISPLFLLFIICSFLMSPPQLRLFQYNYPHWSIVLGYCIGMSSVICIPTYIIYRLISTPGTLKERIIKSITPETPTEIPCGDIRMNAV
row,IC50,SMILES
1,0.126 µM,COc1ccc(C(CN(C)C)C2(O)CCCC2)cc1 (stereo not given)
2,0.3 µM,COc1ccc(C(CN(C)C)C2(O)CCCCCC2)cc1 (stereo not given)
3,> 10 µM,COc1ccc(C(CN2CCOCC2)C2(O)CCCCC2)cc1 (stereo not given)
4,> 10 µM,COc1ccc(C(CN2CCCC2)C2(O)CCCCC2)cc1 (stereo not given)
5,0.9 µM,COc1ccc(C(CN)C2(O)CCCCC2)cc1 (stereo not given)
6,> 10 µM,COc1ccc(C(CN(C)C)C2(O)CCCCCCC2)cc1 (stereo not given)
7,> 10 µM,COc1ccc(C(CN2CCCCC2)C2(O)CCCCC2)cc1 (stereo not given)
8,0.3 µM,CNCC(c1ccc(OC)cc1)C1(O)CCCCC1 (stereo not given) [N-Desmethylvenlafaxine]

# Further lines, the compound ahead of its results:
row,SMILES,IC50
1,CN(C)CC(c1cccc(Cl)c1)C1(O)CCCCC1 (stereo not given),0.13 µM
2,CN(C)CC(c1ccccc1O)C1(O)CCCCC1 (stereo not given),> 10 µM
3,CN(C)CC(c1ccc([N+](=O)[O-])cc1)C1(O)CCCCC1 (stereo not given),0.25 µM
4,COc1cccc(C(CN(C)C)C2(O)CCCC2)c1 (stereo not given),0.095 µM
5,CN(C)CC(c1cccc(Br)c1)C1(O)CCCCC1 (stereo not given),0.052 µM
6,CN(C)CC(c1ccc(Cl)c(Cl)c1)C1(O)CCCCC1 (stereo not given),0.037 µM
7,CN(C)CC(c1ccc(Br)cc1)C1(O)CCCCC1 (stereo not given),0.062 µM
8,COc1ccc(C(CN(C)C)C2(O)CCCCC2)cc1Br (stereo not given),0.19 µM
9,CN(C)CC(c1ccc(Br)cc1)C1(O)CCC1 (stereo not given),0.435 µM
10,CN(C)CC(c1ccc(C(F)(F)F)cc1)C1(O)CCCCC1 (stereo not given),0.088 µM
11,COc1ccc(C(CN(C)C)C2(O)CCCCC2)cc1OC (stereo not given),0.7 µM
12,Cc1ccc(C(CN(C)C)C2(O)CCCCC2)cc1 (stereo not given),0.205 µM
13,CN(C)CC(c1ccc(N)cc1)C1(O)CCCCC1 (stereo not given),> 10 µM
14,CN(C)CC(c1ccccc1Br)C1(O)CCCCC1 (stereo not given),0.26 µM
15,CN(C)CC(c1ccccc1Cl)C1(O)CCCCC1 (stereo not given) [1-(1-(2-chlorophenyl)-2-(dimethylamino)ethyl)cyclohexanol],0.523 µM
16,COc1cccc(C(CN(C)C)C2(O)CCCCC2)c1 (stereo not given) [1-(2-(dimethylamino)-1-(3-methoxyphenyl)ethyl)cyclohexanol],0.15 µM
17,CN(C)CC(c1ccc(Cl)cc1)C1(O)CCCCC1 (stereo not given) [1-[1-(4-Chloro-phenyl)-2-dimethylamino-ethyl]-cyclohexanol (HCl)],0.1 µM
